Measurements reported in PubChem BioAssay AID1996.
In brackets after ≈: the same amount, converted by molar mass.

Details: buffer; pH 7.4; 200.0 µM
With Cc1ccc(/C(O)=C2\C(=O)C(=O)N(C)C2c2ccc([N+](=O)[O-])cc2)cc1 (stereo not given) the solubility kinetic was > 52.9 µg/mL.
Work on COc1ccc(CNc2ccc([N+](=O)[O-])cn2)cc1 yielded a solubility kinetic of 3 µg/mL (≈ 11.6 µM).
With CCOc1cccc(C(=O)Nc2ccc3ccccc3c2)c1 the solubility kinetic was < 0.6 µg/mL.
With O=C(NCCCn1ccnc1)C(=O)c1c[nH]c2ccccc12 the solubility kinetic was > 44.4 µg/mL.
In the case of O=C(N/C(=C/c1ccccc1Cl)C(=O)N1CCCC1)c1ccccc1, the solubility kinetic is reported as > 53.2 µg/mL.
Compound COc1ccc(/C=C2/C(=O)ON=C2C)cc1Cl has a solubility kinetic of 23.6 µg/mL (≈ 93.8 µM).
Work on CN1CCN(Cc2cc3c(cc2[N+](=O)[O-])OCO3)CC1 yielded a solubility kinetic of 38.3 µg/mL (≈ 137 µM).
CC(C)c1ccc(NC(=O)CN2CCN(c3ccccn3)CC2)cc1 showed a solubility kinetic of 1 µg/mL (≈ 2.95 µM).
Work on COc1ccccc1NC(=O)C1CCCN1C(=O)NC1CCCCC1 (stereo not given) yielded a solubility kinetic of 42.4 µg/mL (≈ 123 µM).
In the case of O=C(NC(=S)Nc1cccc(Cl)c1Cl)C1CC1, the solubility kinetic is reported as 0.8 µg/mL (≈ 2.77 µM).
For Cc1cc(C(=O)N(C)Cc2c(F)cccc2Cl)c2ccccc2n1, the solubility kinetic was 42.4 µg/mL (≈ 124 µM).
With Fc1cccc(NC(=S)Nc2cccnc2)c1 the solubility kinetic was > 37.1 µg/mL.
In the case of O=C(Oc1ccccc1C(=O)N1CCOCC1)c1ccc(F)cc1, the solubility kinetic is reported as 45.1 µg/mL (≈ 137 µM).
For CC(=O)Oc1ccc(C(=O)Nc2cccnc2)cc1, the solubility kinetic was > 38.4 µg/mL.
With O=S(=O)(Cc1noc(-c2ccc(Cl)cc2)n1)Cc1ccco1 the solubility kinetic was 3 µg/mL (≈ 8.86 µM).
In the case of CC(C)S(=O)(=O)c1csc(NC(=O)Nc2ccc(Cl)cc2)c1Cl, the solubility kinetic is reported as < 0.4 µg/mL.
In the case of COc1cc(NC(=O)c2ccccc2Cl)c2ncccc2c1, the solubility kinetic is reported as < 0.3 µg/mL.
Work on CCOC(=O)C1CCN(C(=O)c2ccc3c(c2)OCCO3)CC1 yielded a solubility kinetic of 44.4 µg/mL (≈ 139 µM).
With CC(CNC(=O)c1ccc(C#N)cc1)NC(=O)c1ccc(C#N)cc1 (stereo not given) the solubility kinetic was > 49.9 µg/mL.
With Cc1cc(Br)cc(Cl)c1OC(=O)c1ccncc1 the solubility kinetic was 9.5 µg/mL (≈ 29.1 µM).
N#C/C(=C\c1cn(CC(=O)O)c2ccccc12)C(=O)NCc1ccccc1 showed a solubility kinetic of 48.9 µg/mL (≈ 136 µM).
With O=C(CNC(=O)c1cc(Cl)cc([N+](=O)[O-])c1)NC1CC1 the solubility kinetic was > 44.7 µg/mL.
With CCOc1c(Nc2ccccc2O)c(=O)c1=O the solubility kinetic was > 35 µg/mL.
Work on CC(OC(=O)c1ccc(Cl)cc1)C(=O)NCC1CCCCC1 (stereo not given) yielded a solubility kinetic of 13.8 µg/mL (≈ 42.6 µM).
With COc1ccc(S(=O)(=O)Nc2cccnc2)cc1OC the solubility kinetic was > 44.1 µg/mL.
For O=C(O)C1CCCN1C(=O)C12CC3CC(CC(C3)C1)C2 (stereo not given), the solubility kinetic was > 41.6 µg/mL.
For Cn1c(O)c(/C=N/NC(=O)c2ccncc2)c(=O)n(C)c1=S, the solubility kinetic was > 47.9 µg/mL.
In the case of Cc1ccc(S(=O)(=O)NCC(=O)NC2CC2)cc1, the solubility kinetic is reported as > 40.2 µg/mL.
Work on CSc1nc(C)nc(C2CC2)c1C#N yielded a solubility kinetic of 1.2 µg/mL (≈ 5.85 µM).
Nc1c(C(=O)c2ccco2)oc2ccccc12 gave a solubility kinetic of 25.8 µg/mL (≈ 114 µM).
For O=C(O)C1CCC1C(=O)Nc1nc(-c2ccc(Cl)s2)cs1 (stereo not given), the solubility kinetic was > 51.4 µg/mL.
CN(c1ccc(C(=O)N2CCOCC2)cc1)S(=O)(=O)c1cccs1 gave a solubility kinetic of 46.9 µg/mL (≈ 128 µM).
In the case of COc1ccc(C(=O)CSc2nccn2C)cc1, the solubility kinetic is reported as 35.1 µg/mL (≈ 134 µM).
For COC(=O)c1cn(C(=O)c2cccc3ccccc23)c2ccccc12, the solubility kinetic was < 0.7 µg/mL.
In the case of NC(=O)N1c2ccccc2C=Cc2ccccc21, the solubility kinetic is reported as > 35.4 µg/mL.
Work on O=C(CN1C(=O)CCSc2ccccc21)NC1CCCCC1 yielded a solubility kinetic of 43.3 µg/mL (≈ 136 µM).
In the case of CC(C)Oc1ccc(C(=O)Nc2ccc3c(c2)n(C)c(=O)n3C)cc1, the solubility kinetic is reported as 13.5 µg/mL (≈ 39.8 µM).
With O=C(O)CN1C(=O)C2(OCCO2)c2cc(Br)ccc21 the solubility kinetic was > 49.2 µg/mL.
Cc1cccc(C)c1NC(=O)c1cccnc1 showed a solubility kinetic of 33.1 µg/mL (≈ 146 µM).
In the case of COc1ccc(NC(=O)c2ccco2)cn1, the solubility kinetic is reported as > 32.7 µg/mL.
CNC(=O)C12CC3CC(C1)CC(c1ccc(C)cc1)(C3)C2 gave a solubility kinetic of 31.8 µg/mL (≈ 112 µM).
Work on CCN(C(=S)NCCOC)c1cccc2ccccc12 yielded a solubility kinetic of 12.9 µg/mL (≈ 44.7 µM).
Cc1ccc(C(=O)Nc2ccc(C(=O)N3CCCCC3C)cc2)cc1 (stereo not given) showed a solubility kinetic of 5.2 µg/mL (≈ 15.5 µM).
For O=C(c1ccccc1)c1ccc(OCC(O)CN2CCCC2)cc1 (stereo not given), the solubility kinetic was > 48.8 µg/mL.
For O=C(CSc1nccn1-c1cccc(Cl)c1)NO, the solubility kinetic was > 42.6 µg/mL.
In the case of Oc1ccccc1-c1nc(NCc2cccnc2)c2ccccc2n1, the solubility kinetic is reported as < 0.2 µg/mL.
In the case of O=[N+]([O-])c1ccc(Cl)c(NC2=NCCCCC2)c1, the solubility kinetic is reported as > 40.2 µg/mL.
In the case of O=C(O)CCCCNS(=O)(=O)/C=C/c1ccccc1, the solubility kinetic is reported as > 42.5 µg/mL.
Work on COCCCNc1nc2nonc2nc1N(C)CC1CCCN1C (stereo not given) yielded a solubility kinetic of 43.5 µg/mL (≈ 130 µM).
For O=S(=O)(/N=C(/Nc1cccnc1)c1ccccc1)c1ccc(F)cc1F, the solubility kinetic was > 56 µg/mL.
In the case of Cc1ccc([N+](=O)[O-])c(NC2OC(CO)C(O)C2O)c1 (stereo not given), the solubility kinetic is reported as > 42.6 µg/mL.
Cl.O=C(CCN1CCc2ccccc2C1)Nc1ccc(F)c(F)c1 showed a solubility kinetic of 37.9 µg/mL.
For CCOC(=O)c1c(C)[nH]c(C)c1C(=O)COC(=O)/C=C/c1ccco1, the solubility kinetic was > 51.8 µg/mL.
In the case of FC(F)(F)c1cc(N2CCNCC2)c2ccccc2n1, the solubility kinetic is reported as 41.6 µg/mL (≈ 148 µM).
In the case of Cc1ccnc(NC(=O)CCc2c[nH]c3ccccc23)c1, the solubility kinetic is reported as > 41.9 µg/mL.
For CC(=O)N1CCN(C(=O)CSc2ncnc3sc(C)c(C)c23)CC1, the solubility kinetic was > 54.7 µg/mL.
With O=C(Cc1ccc([N+](=O)[O-])cc1)N1CCCc2ccccc21 the solubility kinetic was 39.5 µg/mL (≈ 133 µM).
With COc1ccc(OCCOCCN2CCN(C)CC2)cc1.O=C(O)C(=O)O the solubility kinetic was 54.2 µg/mL.
With Cc1cc(NC(=O)CN2C(=O)c3ccccc3S2(=O)=O)no1 the solubility kinetic was 32.7 µg/mL (≈ 102 µM).
For COc1cc(C2/C(=C(\O)c3ccc4c(c3)OCCO4)C(=O)C(=O)N2Cc2ccco2)ccc1O (stereo not given), the solubility kinetic was 66.7 µg/mL (≈ 144 µM).
